Laboratory results as given in US9975921B2, “Crystal forms of anamorelin” (Helsinn Healthcare SA, priority 2004, dated 2018).

Assays:
Format in all cases: physicochemical
[1] = Hygroscopicity study: Thermogravimetric analysis (TGA); conditions: before DVS
Method: (§1) The hygroscopicity of (3R)-1-(2-methylalanyl-D-tryptophyl)-3-(phenylmethyl)-3-piperidinecarboxylic acid 1,2,2-trimethylhydrazide form C produced by the method disclosed in Example 4 (monohydrate) was evaluated using Dynamic Vapor Sorption analysis (DVS) and Thermogravimetric analysis (TGA). Dynamic Vapor Sorption Analysis (DVS)
The samples were analyzed using a Mettler 851e thermogravimetric analyzer. Samples were weighed into a crucible. The samples were heated from 30° C. to 300.0° C. ramped at 10.00° C./min with an air purge.

[2] = Hygroscopicity study: Dynamic Vapor Sorption analysis (DVS)
Method: as §1
The samples were analyzed using a Hiden IGAsorp vapor sorption analyzer. Each sample was placed in a sample pan and exposed to drying at 25° C. in a dry nitrogen stream for two hours. This assured that the samples being analyzed were at a constant weight prior to the start of the analysis. The samples were then analyzed at 25.0° C. The adsorption isotherm was conducted between: 10-90% RH with a step size of 10%. The desorption isotherm was conducted between 85-0% RH with a step size 10%. After the isotherms were complete, each of the samples were heated to 125° C. until the weight loss curve reached an asymptote or for 4 hours.

[3] = 12 month stability study: water content by Karl Fischer; conditions: 1 month
[4] = 12 month stability study: HPLC area % (TM-808)
Method: (§2) Crystalline (3R)-1-(2-methylalanyl-D-tryptophyl)-3-(phenylmethyl)-3-piperidinecarboxylic acid 1,2,2-trimnethylhydrazide was placed in double plastic bags, closed under a nitrogen blanket, and placed inside a small fiberboard container, the physical appearance, water content, purity and crystallinity were tested every three months for a period of 12 months under a variety of conditions.
(§3) The purity and water content of (3R)-1-(2-methylalanyl-D-tryptophyl)-3-(phenylmethyl)-3-piperidinecarboxylic acid 1,2,2-trimethylhydrazide was analyzed using HPLC and KF respectively before, during, and after the 12 month stability study.

[5] = 12 month stability study: water content by Karl Fischer
Method: as §2, §3

[6] = 12 month stability study: physical description (TM-106)
Method: as §2

[7] = 12 month stability study: crystallinity using optical microscopy (USP <695>)
Method: as §2

[8] = 12 month stability study: HPLC weight % (TM-808)
Method: as §2, §3

[9] = 12 month stability study: DSC (USP <891>)
Method: as §2

SMILES: CN(C)N(C)C(=O)[C@@]1(Cc2ccccc2)CCCN(C(=O)[C@@H](Cc2c[nH]c3ccccc23)NC(=O)C(C)(C)N)C1 [Form C monohydrate, (3R)-1-(2-methylalanyl-D-tryptophyl)-3-(phenylmethyl)-3-piperidinecarboxylic acid 1,2,2-trimethylhydrazide]
- bound water initially contained [1]: 2.5 % by weight
- relative humidity above which the dihydrate was formed ([2]; DVS): > 35%
- water contained after steady adsorption ([2]; adsorption isotherm, 25.0° C., at 35% RH): 6 % by weight
- additional adsorption ([2]; adsorption isotherm, up to 90% RH): No other significant additional adsorption
- relative humidity down to which the dihydrate form was observed ([2]; desorption isotherm): 30 % RH

SMILES: CN(C)N(C)C(=O)[C@@]1(Cc2ccccc2)CCCN(C(=O)[C@@H](Cc2c[nH]c3ccccc23)NC(=O)C(C)(C)N)C1 [crystalline anamorelin, (3R)-1-(2-methylalanyl-D-tryptophyl)-3-(phenylmethyl)-3-piperidinecarboxylic acid 1,2,2-trimethylhydrazide]
- Water content by Karl Fisher ([3]; 5° C.): 5.3%
- Water content by Karl Fisher ([3]; 25° C. 60% RH): 5.8%
- Water content by Karl Fisher ([3]; 40° C. 75% RH): 6.1%
- HPLC Area % ([4]; 5° C., 1 month): 99.7%
- HPLC Area % ([4]; 5° C., 3 months): 99.7%
- HPLC Area % ([4]; 5° C., 6 months): 99.7%
- HPLC Area % ([4]; 5° C., 9 months): 99.8%
- HPLC Area % ([4]; 5° C., 12 months): 99.7%
- HPLC Area % ([4]; 25° C. 60% RH, 1 month): 99.7%
- HPLC Area % ([4]; 25° C. 60% RH, 3 months): 99.7%
- HPLC Area % ([4]; 25° C. 60% RH, 6 months): 99.7%
- HPLC Area % ([4]; 25° C. 60% RH, 9 months): 99.8%
- HPLC Area % ([4]; 25° C. 60% RH, 12 months): 99.7%
- HPLC Area % ([4]; 40° C. 75% RH, 1 month): 99.7%
- HPLC Area % ([4]; 40° C. 75% RH, 3 months): 99.7%
- HPLC Area % ([4]; 40° C. 75% RH, 6 months): 99.7%
- HPLC Area % ([4]; Initial): 99.8%
- purity ([4]; after 12 months): relatively unchanged
- Water content by Karl Fisher ([5]; 5° C., 3 months): 6.0%
- Water content by Karl Fisher ([5]; 5° C., 6 months): 5.8%
- Water content by Karl Fisher ([5]; 5° C., 9 months): 5.6%
- Water content by Karl Fisher ([5]; 5° C., 12 months): 6.1%
- Water content by Karl Fisher ([5]; 25° C. 60% RH, 3 months): 6.0%
- Water content by Karl Fisher ([5]; 25° C. 60% RH, 6 months): 5.9%
- Water content by Karl Fisher ([5]; 25° C. 60% RH, 9 months): 5.7%
- Water content by Karl Fisher ([5]; 25° C. 60% RH, 12 months): 5.8%
- Water content by Karl Fisher ([5]; 40° C. 75% RH, 3 months): 6.1%
- Water content by Karl Fisher ([5]; 40° C. 75% RH, 6 months): 5.9%
- water content (Karl Fischer Analysis) ([5]; after 12 months): approximately 6%
- Physical Description ([6]; 5° C., 1 month): Off-white
- Physical Description ([6]; 5° C., 3 months): Off-white
- Physical Description ([6]; 5° C., 6 months): Off-white
- Physical Description ([6]; 5° C., 9 months): White
- Physical Description ([6]; 5° C., 12 months): Off-white
- Physical Description ([6]; 25° C. 60% RH, 1 month): Off-white
- Physical Description ([6]; 25° C. 60% RH, 3 months): Off-white
- Physical Description ([6]; 25° C. 60% RH, 6 months): Off-white
- Physical Description ([6]; 25° C. 60% RH, 9 months): Off-white
- Physical Description ([6]; 25° C. 60% RH, 12 months): Off-white
- Physical Description ([6]; 40° C. 60% RH, 1 month): Off-white
- Physical Description ([6]; 40° C. 60% RH, 3 months): Off-white
- Physical Description ([6]; 40° C. 60% RH, 6 months): Off-white
- Physical Description ([6]; Initial): Off-white
- Crystallinity using Optical Microscopy ([7]; 5° C., 1 month): Crystal-
- Crystallinity using Optical Microscopy ([7]; 5° C., 3 months): Crystal-
- Crystallinity using Optical Microscopy ([7]; 5° C., 6 months): Crystal-
- Crystallinity using Optical Microscopy ([7]; 5° C., 9 months): Crystal-
- Crystallinity using Optical Microscopy ([7]; 5° C., 12 months): Crystal-
- Crystallinity using Optical Microscopy ([7]; 25° C. 60% RH, 1 month): Crystal-
- Crystallinity using Optical Microscopy ([7]; 25° C. 60% RH, 3 months): Crystal-
- Crystallinity using Optical Microscopy ([7]; 25° C. 60% RH, 6 months): Crystal-
- Crystallinity using Optical Microscopy ([7]; 25° C. 60% RH, 9 months): Crystal-
- Crystallinity using Optical Microscopy ([7]; 25° C. 60% RH, 12 months): Crystal-
- Crystallinity using Optical Microscopy ([7]; 40° C. 75% RH, 1 month): Crystal-
- Crystallinity using Optical Microscopy ([7]; 40° C. 75% RH, 3 months): Crystal-
- Crystallinity using Optical Microscopy ([7]; 40° C. 75% RH, 6 months): Crystal-
- Crystallinity using Optical Microscopy ([7]; Initial): Crystal-
- HPLC Weight % ([8]; 5° C., 1 month): 92.0%
- HPLC Weight % ([8]; 5° C., 3 months): 93.2%
- HPLC Weight % ([8]; 5° C., 6 months): 93.9%
- HPLC Weight % ([8]; 5° C., 9 months): 94.5%
- HPLC Weight % ([8]; 5° C., 12 months): 94.3%
- HPLC Weight % ([8]; 25° C. 60% RH, 1 month): 92.1%
- HPLC Weight % ([8]; 25° C. 60% RH, 3 months): 93.2%
- HPLC Weight % ([8]; 25° C. 60% RH, 6 months): 94.2%
- HPLC Weight % ([8]; 25° C. 60% RH, 9 months): 94.6%
- HPLC Weight % ([8]; 25° C. 60% RH, 12 months): 94.2%
- HPLC Weight % ([8]; 40° C. 75% RH, 1 month): 91.8%
- HPLC Weight % ([8]; 40° C. 75% RH, 3 months): 93.0%
- HPLC Weight % ([8]; 40° C. 75% RH, 6 months): 94.1%
- HPLC Weight % ([8]; Initial): 99.8%
- DSC Onset ([9]; 5° C., 3 months): 112.1 °C
- DSC Peak ([9]; 5° C., 3 months): 117.1 °C
- DSC Onset ([9]; 5° C., 6 months): 112.3 °C
- DSC Peak ([9]; 5° C., 6 months): 116.9 °C
- DSC Onset ([9]; 25° C. 60% RH, 3 months): 112.6 °C
- DSC Peak ([9]; 25° C. 60% RH, 3 months): 117.7 °C
- DSC Onset ([9]; 25° C. 60% RH, 6 months): 112.5 °C
- DSC Peak ([9]; 25° C. 60% RH, 6 months): 117 °C
- DSC Onset ([9]; 40° C. 75% RH, 3 months): 112.2 °C
- DSC Peak ([9]; 40° C. 75% RH, 3 months): 117.5 °C
- DSC Onset ([9]; 40° C. 75% RH, 6 months): 125.5 °C
- DSC Peak ([9]; 40° C. 75% RH, 6 months): 117.8 °C
- DSC Onset ([9]; Initial): 108.2 °C
- DSC Peak ([9]; Initial): 112.7 °C
